Assay results published in patent publication US7897592B2, “HIV integrase inhibitors” (priority 2005, dated 2011).

molecular target: T1, HIV-integrase (recombinant integrase) (Human immunodeficiency virus type 1 group M subtype B, UniProt P12497); assay: HIV-Integrase Inhibition Activity (SPA bead strand-transfer assay); format: biochemical; settings: biotin labeled substrate DNA on SPA beads, P33 labeled target DNA, read-out: Activity (IC50 against HIV-integrase)
T1 construct: Recombinant integrase (0.26 ng) was incubated with the beads
Experimental: HIV-Integrase Inhibition Activity. To evaluate in-vitro activity against HIV-integrase, 5 pmole of biotin labeled substrate DNA was bound to 100 μg of Streptavidin coated PVT SPA beads (Amersham Pharmacia Biotech). Recombinant integrase (0.26 ng) was incubated with the beads for 90 min at 37° C. Unbound enzyme was removed by washing the complex followed by addition of inhibitors and 0.1 fmol of P33 labeled target DNA. The reaction was stopped by adding EDTA to a final concentration of 10 mM. Samples were counted in TopCountNXT (Packard) and the CPM was used as a measure of integration. The reaction condition was as described in A. Engelman and R. Craigie, J. Virol. 69, 5908-5911 (1995). The sequences of substrate and target DNA were described in Nucleic Acid Research 22, 1121-1122 (1994). Activity equal to A refers to a compound having IC50=0.002 to 0.10 μM while B and C denote compounds having IC50=0.1 to 1.0 μM and IC50≧1.0 μM respectively.

| Compound | IC50 [nM] |
| --- | --- |
| O=C(NCc1ccc(F)cc1)c1nc2n(c(=O)c1O)CCSC2 [Example 1, N-(4-fluorobenzyl)-3-hydroxy-4-oxo-4,6,7,9-tetrahydropyrimido[2,1-c][1,4]thiazine-2-carboxamide] | 2 to 100 |
| O=C(NCc1ccc(F)cc1)c1nc2n(c(=O)c1O)CCS(=O)(=O)C2 [Example 2, Pyrimido[2,1-c][1,4]thiazine-2-carboxamide, N-[(4-fluorophenyl)methyl]-4,6,7,9-tetrahydro-3-hydroxy-4-oxo-, 8,8-dioxide] | 100 to 1000 |
| CC1c2nc(C(=O)NCc3ccc(F)cc3)c(O)c(=O)n2CCS1(=O)=O (centres unmarked) [Example 3, Pyrimido[2,1-c][1,4]thiazine-2-carboxamide, N-[(4-fluorophenyl)methyl]-4,6,7,9-tetrahydro-3-hydroxy-9-methyl-4-oxo-, 8,8-dioxide] | 2 to 100 |
| CC1(C)c2nc(C(=O)NCc3ccc(F)cc3)c(O)c(=O)n2CCS1(=O)=O [Example 4, Pyrimido[2,1-c][1,4]thiazine-2-carboxamide, N-[(4-fluorophenyl)methyl]-4,6,7,9-tetrahydro-3-hydroxy-9,9-dimethyl-4-oxo-, 8,8-dioxide] | 2 to 100 |
| CC1(C)c2nc(C(=O)NCc3ccc(F)cc3-n3cncn3)c(O)c(=O)n2CCS1(=O)=O [Example 5, Pyrimido[2,1-c][1,4]thiazine-2-carboxamide, N-[[4-fluoro-2-(1H-1,2,4-triazol-1-yl)phenyl]methyl]-4,6,7,9-tetrahydro-3-hydroxy-9,9-dimethyl-4-oxo-, 8,8-dioxide] | 2 to 100 |
| Cc1ncn(-c2cc(F)ccc2CNC(=O)c2nc3n(c(=O)c2O)CCS(=O)(=O)C3(C)C)n1 [Example 6, Pyrimido[2,1-c][1,4]thiazine-2-carboxamide, N-[[4-fluoro-2-(3-methyl-1H-1,2,4-triazol-1-yl)phenyl]methyl]-4,6,7,9-tetrahydro-3-hydroxy-9,9-dimethyl-4-oxo-, 8,8-dioxide] | 2 to 100 |
| Cc1ncnn1-c1cc(F)ccc1CNC(=O)c1nc2n(c(=O)c1O)CCS(=O)(=O)C2(C)C [Example 7, Pyrimido[2,1-c][1,4]thiazine-2-carboxamide, N-[[4-fluoro-2-(5-methyl-1H-1,2,4-triazol-1-yl)phenyl]methyl]-4,6,7,9-tetrahydro-3-hydroxy-9,9-dimethyl-4-oxo-8,8-dioxide] | 2 to 100 |
| O=C(NCc1ccc(F)cc1)c1nc2n(c(=O)c1O)CCS(=O)(=O)C21CC1 [Example 8, Spiro[cyclopropane-1,9′(4′H)-pyrimido[2,1-c][1,4]thiazine]-2′-carboxamide, N-[(4-fluorophenyl)methyl]-6′,7′-dihydro-3′-hydroxy-4′-oxo-, 8′,8′-dioxide] | 2 to 100 |
| O=C(NCc1ccc(F)cc1-n1cncn1)c1nc2n(c(=O)c1O)CCS(=O)(=O)C21CC1 [Example 9, Spiro[cyclopropane-1,9′(4′H)-pyrimido[2,1-c][1,4]thiazine]-2′-carboxamide, N-[[4-fluoro-2-(1H-1,2,4-triazol-1-yl)phenyl]methyl]-6′,7′-dihydro-3′-hydroxy-4′-oxo-, 8′,8′-dioxide] | 2 to 100 |
| Cc1ncn(-c2cc(F)ccc2CNC(=O)c2nc3n(c(=O)c2O)CCS(=O)(=O)C32CC2)n1 [Example 10, Spiro[cyclopropane-1,9′(4′H)-pyrimido[2,1-c][1,4]thiazine]-2′-carboxamide, N-[[4-fluoro-2-(3-methyl-1H-1,2,4-triazol-1-yl)phenyl]methyl]-6′,7′-dihydro-3′-hydroxy-4′-oxo-, 8′,8′-dioxide] | 2 to 100 |
| Cc1ncnn1-c1cc(F)ccc1CNC(=O)c1nc2n(c(=O)c1O)CCS(=O)(=O)C21CC1 [Example 11, Spiro[cyclopropane-1,9′(4′H)-pyrimido[2,1-c][1,4]thiazine]-2′-carboxamide, N-[[4-fluoro-2-(5-methyl-1H-1,2,4-triazol-1-yl)phenyl]methyl]-6′,7′-dihydro-3′-hydroxy-4′-oxo-, 8′,8′-dioxide] | 2 to 100 |
| O=C(NCc1ccc(F)cc1)c1nc2n(c(=O)c1O)CCS(=O)(=O)C21CCCC1 [Example 12, Spiro[cyclopentane-1,9′(4′H)-pyrimido[2,1-c][1,4]thiazine]-2′-carboxamide, N-[(4-fluorophenyl)methyl]-6′,7′-dihydro-3′-hydroxy-4′-oxo-, 8′,8′-dioxide] | 2 to 100 |
| O=C(NCc1ccc(F)cc1-n1cncn1)c1nc2n(c(=O)c1O)CCS(=O)(=O)C21CCCC1 [Example 13, Spiro[cyclopentane-1,9′(4′H)-pyrimido[2,1-c][1,4]thiazine]-2′-carboxamide, N-[[4-fluoro-2-(1H-1,2,4-triazol-1-yl)phenyl]methyl]-6′,7′-dihydro-3′-hydroxy-4′-oxo-, 8′,8′-dioxide] | 2 to 100 |
| Cc1ncn(-c2cc(F)ccc2CNC(=O)c2nc3n(c(=O)c2O)CCS(=O)(=O)C32CCCC2)n1 [Example 14, Spiro[cyclopentane-1,9′(4′H)-pyrimido[2,1-c][1,4]thiazine]-2′-carboxamide, N-[[4-fluoro-2-(3-methyl-1H-1,2,4-triazol-1-yl)phenyl]methyl]-6′,7′-dihydro-3′-hydroxy-4′-oxo-, 8′,8′-dioxide] | 2 to 100 |
| Cc1ncnn1-c1cc(F)ccc1CNC(=O)c1nc2n(c(=O)c1O)CCS(=O)(=O)C21CCCC1 [Example 15, Spiro[cyclopentane-1,9′(4′H)-pyrimido[2,1-c][1,4]thiazine]-2′-carboxamide, N-[[4-fluoro-2-(5-methyl-1H-1,2,4-triazol-1-yl)phenyl]methyl]-6′,7′-dihydro-3′-hydroxy-4′-oxo-, 8′,8′-dioxide] | 2 to 100 |
| O=C(NCc1ccc(F)cc1)c1nc2n(c(=O)c1O)CCS(=O)(=O)C21CCOCC1 [Example 16, Spiro[4H-pyran-4,9′(4′H)-pyrimido[2,1-c][1,4]thiazine]-2′-carboxamide, N-[(4-fluorophenyl)methyl]-2,3,5,6,6′,7′-hexahydro-3′-hydroxy-4′-oxo-, 8′,8′-dioxide] | 2 to 100 |
| O=C(NCc1ccc(F)cc1-n1cncn1)c1nc2n(c(=O)c1O)CCS(=O)(=O)C21CCOCC1 [Example 17, Spiro[4H-pyran-4,9′(4′H)-pyrimido[2,1-c][1,4]thiazine]-2′-carboxamide, N-[[4-fluoro-2-(1H-1,2,4-triazol-1-yl)phenyl]methyl]-2,3,5,6,6′,7′-hexahydro-3′-hydroxy-4′-oxo-, 8′,8′-dioxide] | 2 to 100 |
| Cc1ncnn1-c1cc(F)ccc1CNC(=O)c1nc2n(c(=O)c1O)CCS(=O)(=O)C21CCOCC1 [Example 18, Spiro[4H-pyran-4,9′(4′H)-pyrimido[2,1-c][1,4]thiazine]-2′-carboxamide, N-[[4-fluoro-2-(5-methyl-1H-1,2,4-triazol-1-yl)phenyl]methyl]-2,3,5,6,6′,7′-hexahydro-3′-hydroxy-4′-oxo-, 8′,8′-dioxide] | 2 to 100 |
| O=C(NCc1ccc(F)cc1)c1nc2n(c(=O)c1O)CCCSC2 [Example 19, N-(4-Fluorobenzyl)-3-hydroxy-4-oxo-6,7,8,10-tetrahydro-4H-pyrimido[2,1-c][1,4]thiazepine-2-carboxamide] | 2 to 100 |
| CC1SCCCn2c1nc(C(=O)NCc1ccc(F)cc1)c(O)c2=O (centres unmarked) [Example 20, N-(4-Fluorobenzyl)-3-hydroxy-10-methyl-4-oxo-6,7,8,10-tetrahydro-4H-pyrimido[2,1-c][1,4]thiazepine-2-carboxamide] | 2 to 100 |
| O=C(NCc1ccc(F)cc1)c1nc2n(c(=O)c1O)CCCS(=O)(=O)C2 [Example 21, 6H-Pyrimido[2,1-c][1,4]thiazepine-2-carboxamide, N-[(4-fluorophenyl)methyl]-4,7,8,10-tetrahydro-3-hydroxy-4-oxo-, 9,9-dioxide] | 2 to 100 |
| CC1c2nc(C(=O)NCc3ccc(F)cc3)c(O)c(=O)n2CCCS1(=O)=O (centres unmarked) [Example 22, 6H-Pyrimido[2,1-c][1,4]thiazepine-2-carboxamide, N-[(4-fluorophenyl)methyl]-4,7,8,10-tetrahydro-3-hydroxy-10-methyl-4-oxo-, 9,9-dioxide] | 2 to 100 |
| CC1(C)c2nc(C(=O)NCc3ccc(F)cc3)c(O)c(=O)n2CCCS1(=O)=O [Example 23, 6H-Pyrimido[2,1-c][1,4]thiazepine-2-carboxamide, N-[(4-fluorophenyl)methyl]-4,7,8,10-tetrahydro-3-hydroxy-10,10-dimethyl-4-oxo-, 9,9-dioxide] | 2 to 100 |
| O=C(NCc1ccc(F)cc1)c1nc2n(c(=O)c1O)CCCS(=O)(=O)C21CC1 [Example 24, Spiro[cyclopropane-1,10′(4′H)-[6H]pyrimido[2,1-c][1,4]thiazepine]-2′-carboxamide, N-[(4-fluorophenyl)methyl]-7′,8′-dihydro-3′-hydroxy-4′-oxo-, 9′,9′-dioxide] | 2 to 100 |
| O=C(NCc1ccc(F)cc1)c1nc2n(c(=O)c1O)CCCS(=O)(=O)C21CCCC1 [Example 25, Spiro[cyclopentane-1,10′(4′H)-[6H]pyrimido[2,1-c][1,4]thiazepine]-2′-carboxamide, N-[(4-fluorophenyl)methyl]-7′,8′-dihydro-3′-hydroxy-4′-oxo-, 9′,9′-dioxide] | 2 to 100 |
| O=C(NCc1ccc(F)cc1)c1nc2n(c(=O)c1O)CCCS(=O)(=O)C21CCOCC1 [Example 26, Spiro[4H-pyran-4,10′(4′H)-[6H]pyrimido[2,1-c][1,4]thiazepine]-2′-carboxamide, N-[(4-fluorophenyl)methyl]-2,3,5,6,7′,8′-hexahydro-3′-hydroxy-4′-oxo-, 9′,9′-dioxide] | 2 to 100 |
